Reference: patent US20250034167A1, “HETEROCYCLIC COMPOUNDS AND METHODS OF USE” (AMGEN INC., priority 2021, published 2025)
Read-outs that look alike come from different tables or passages of the source.

Experiments:
[1] = test system: Phosphorylation of ERK1/2 in AsPC-1 cells; assay: Phospho-ERK1/2 MSD Assay; assay type: cell-based
Procedure: Sixteen hours prior to compound treatment, AsPC-1 cells were seeded in 96-well cell culture plates at a density of 25,000 cells/well and incubated at 37° C., 5% CO2. A compound dose-response titration was diluted in growth media, added to appropriate wells of a cell culture plate, and then incubated at 37° C., 5% CO2 for 2 hours.

[2] = biological target: His-tagged KRAS G12D protein (Homo sapiens, UniProt P01116, G12D); assay: biochemical
[3] = Homo sapiens, ASPC1, 2 h, read-out: 2 h p-ERK (AsPC-1 cells), IC50, AsPC-1 cells, 2 h compound treatment

His-tagged KRAS G12D protein, sequence (P01116 1-188 isoform P01116-2 G12D): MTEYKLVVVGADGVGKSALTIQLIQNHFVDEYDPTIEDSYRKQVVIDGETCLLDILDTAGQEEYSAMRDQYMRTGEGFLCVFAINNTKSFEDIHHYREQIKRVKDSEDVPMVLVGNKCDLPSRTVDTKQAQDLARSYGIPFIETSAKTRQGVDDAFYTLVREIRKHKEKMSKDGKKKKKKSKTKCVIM

Row | IC50 [1, 3] [nM] | IC50 [2] [nM] | IC50 ([1]; read-out: 2 h p-ERK (AsPC-1 cells), IC50, AsPC-1 cells, 2 h compound treatment) [nM] | Structure (SMILES)
1 | – | 31 | 2380 | CCc1c(F)ccc2cc(O)cc(-c3ncc4c(N5CC6CC(O)C(C6)C5)nc(OC[C@@]56CCCN5C[C@H](F)C6)nc4c3F)c12 (single isomer, unassigned) [Example 23]
2 | 115 | 1 | – | CCc1c(F)ccc2cc(O)cc(-c3ncc4c(N5CCCCCC5)nc(OC[C@@]56CCCN5C[C@H](F)C6)nc4c3F)c12 [Example 2, 4-(4-(Azepan-1-yl)-8-fluoro-2-(((2R,7aS)-2-fluorotetrahydro-1H-pyrrolizin-7a(5H)-yl)methoxy)pyrido[4,3-d]pyrimidin-7-yl)-5-ethyl-6-fluoronaphthalen-2-ol]
3 | 661 | 2 | – | CCc1c(F)ccc2cc(O)cc(-c3ncc4c(N5CCCC[C@@H](NC(C)=O)C5)nc(OC[C@@]56CCCN5C[C@H](F)C6)nc4c3F)c12 [Example 133, N-((R)-1-(7-(8-Ethyl-7-fluoro-3-hydroxynaphthalen-1-yl)-8-fluoro-2-(((2R,7aS)-2-fluorotetrahydro-1H-pyrrolizin-7a(5H)-yl)methoxy)pyrido[4,3-d]pyrimidin-4-yl)azepan-3-yl)acetamide]
4 | 810 | 38 | – | CCc1c(F)ccc2cc(O)cc(-c3ncc4c(N5CCC[C@H]6OCC[C@H]65)nc(OC[C@@]56CCCN5C[C@H](F)C6)nc4c3F)c12 (relative stereo) [Example 42, rel-5-Ethyl-6-fluoro-4-(8-fluoro-2-(((2R,7aS)-2-fluorotetrahydro-1H-pyrrolizin-7a(5H)-yl)methoxy)-4-((3aR,7aR)-hexahydrofuro[3,2-b]pyridin-4(2H)-yl)pyrido[4,3-d]pyrimidin-7-yl)naphthalen-2-ol]
5 | 94 | 3 | – | Oc1cc(-c2ncc3c(N4CCCCCC4)nc(OC[C@@]45CCCN4C[C@H](F)C5)nc3c2F)c2c(F)c(F)ccc2c1 [Example 166, 4-(4-(Azepan-1-yl)-8-fluoro-2-(((2R,7aS)-2-fluorotetrahydro-1H-pyrrolizin-7a(5H)-yl)methoxy)pyrido[4,3-d]pyrimidin-7-yl)-5,6-difluoronaphthalen-2-ol]
6 | 100 | 2 | – | CCc1c(F)ccc2cc(O)cc(-c3ncc4c(N5CCCCCCC5)nc(OC[C@@]56CCCN5C[C@H](F)C6)nc4c3F)c12 [Example 93, 4-(4-(Azocan-1-yl)-8-fluoro-2-(((2R,7aS)-2-fluorotetrahydro-1H-pyrrolizin-7a(5H)-yl)methoxy)pyrido[4,3-d]pyrimidin-7-yl)-5-ethyl-6-fluoronaphthalen-2-ol]

Further lines, the molecule ahead of its results:

Row | Structure (SMILES) | IC50 [1, 3] [nM] | IC50 [2] [nM] | IC50 ([1]; read-out: 2 h p-ERK (AsPC-1 cells), IC50, AsPC-1 cells, 2 h compound treatment) [nM]
7 | CCc1c(F)ccc2cc(O)cc(-c3ncc4c(N5CCC=CCC5)nc(OC[C@@]56CCCN5C[C@H](F)C6)nc4c3F)c12 [Example 139, 5-Ethyl-6-fluoro-4-(8-fluoro-2-(((2R,7aS)-2-fluorotetrahydro-1H-pyrrolizin-7a(5H)-yl)methoxy)-4-(2,3,6,7-tetrahydro-1H-azepin-1-yl)pyrido[4,3-d]pyrimidin-7-yl)naphthalen-2-ol] | 116 | 5 | –
8 | CCc1c(F)ccc2cc(O)cc(-c3ncc4c(N5CC(C(N)=O)C5)nc(OC[C@@]56CCCN5C[C@H](F)C6)nc4c3F)c12 [Example 88, 1-(7-(8-Ethyl-7-fluoro-3-hydroxynaphthalen-1-yl)-8-fluoro-2-(((2R,7aS)-2-fluorotetrahydro-1H-pyrrolizin-7a(5H)-yl)methoxy)pyrido[4,3-d]pyrimidin-4-yl)azetidine-3-carboxamide] | > 10000 | 6 | –
9 | CCc1c(F)ccc2cc(O)cc(-c3ncc4c(N5CCCC(O)(CC)C5)nc(OC[C@@]56CCCN5C[C@H](F)C6)nc4c3F)c12 (stereo partly drawn) [Example 65, 3-Ethyl-1-(7-(8-ethyl-7-fluoro-3-hydroxynaphthalen-1-yl)-8-fluoro-2-(((2R,7aS)-2-fluorotetrahydro-1H-pyrrolizin-7a(5H)-yl)methoxy)pyrido[4,3-d]pyrimidin-4-yl)piperidin-3-ol] | 153 | 3 | –
10 | CCc1c(F)ccc2cc(O)cc(-c3ncc4c(N5CCCC(CO)(CCl)C5)nc(OC[C@@]56CCCN5C[C@H](F)C6)nc4c3F)c12 (stereo partly drawn) [Example 22, 4-(4-(3-(Chloromethyl)-3-(hydroxymethyl)piperidin-1-yl)-8-fluoro-2-(((2R,7aS)-2-fluorotetrahydro-1H-pyrrolizin-7a(5H)-yl)methoxy)pyrido[4,3-d]pyrimidin-7-yl)-5-ethyl-6-fluoronaphthalen-2-ol] | 297 | 4 | –
11 | CCc1c(F)ccc2cc(O)cc(-c3ncc4c(N5CCCCC[C@H]5C)nc(OC[C@@]56CCCN5C[C@H](F)C6)nc4c3F)c12 [Example 80, 5-Ethyl-6-fluoro-4-(8-fluoro-2-(((2R,7aS)-2-fluorotetrahydro-1H-pyrrolizin-7a(5H)-yl)methoxy)-4-((R)-2-methylazepan-1-yl)pyrido[4,3-d]pyrimidin-7-yl)naphthalen-2-ol] | 253 | 2 | –
12 | CCc1c(F)ccc2cc(O)cc(-c3ncc4c(N5CCC[C@@](C)(CO)C5)nc(OC[C@@]56CCCN5C[C@H](F)C6)nc4c3F)c12 [Example 67, 5-Ethyl-6-fluoro-4-(8-fluoro-2-(((2R,7aS)-2-fluorotetrahydro-1H-pyrrolizin-7a(5H)-yl)methoxy)-4-((R)-3-(hydroxymethyl)-3-methylpiperidin-1-yl)pyrido[4,3-d]pyrimidin-7-yl)naphthalen-2-ol] | 816 | 19 | –
13 | CCc1cccc2cc(O)cc(-c3ncc4c(N5CCC[C@@](C)(O)C5)nc(OC[C@@]56CCCN5C[C@H](F)C6)nc4c3F)c12 [Example 58, (R)-1-(7-(8-Ethyl-3-hydroxynaphthalen-1-yl)-8-fluoro-2-(((2R,7aS)-2-fluorotetrahydro-1H-pyrrolizin-7a(5H)-yl)methoxy)pyrido[4,3-d]pyrimidin-4-yl)-3-methylpiperidin-3-ol] | 9 | 1 | –
14 | CCc1c(F)ccc2cc(O)cc(-c3ncc4c(N5CC(C)(O)C5)nc(OC[C@@]56CCCN5C[C@H](F)C6)nc4c3F)c12 [Example 92, 1-(7-(8-Ethyl-7-fluoro-3-hydroxynaphthalen-1-yl)-8-fluoro-2-(((2R,7aS)-2-fluorotetrahydro-1H-pyrrolizin-7a(5H)-yl)methoxy)pyrido[4,3-d]pyrimidin-4-yl)-3-methylazetidin-3-ol] | 6620 | 83 | –
15 | CCc1c(F)ccc2cc(O)cc(-c3ncc4c(N5CCC6CC6(O)C5)nc(OC[C@@]56CCCN5C[C@H](F)C6)nc4c3F)c12 (stereo partly drawn) [Example 99, 3-(7-(8-Ethyl-7-fluoro-3-hydroxynaphthalen-1-yl)-8-fluoro-2-(((2R,7aS)-2-fluorotetrahydro-1H-pyrrolizin-7a(5H)-yl)methoxy)pyrido[4,3-d]pyrimidin-4-yl)-3-azabicyclo[4.1.0]heptan-1-ol] | 794 | 11 | –
16 | CCc1c(F)ccc2cc(O)cc(-c3ncc4c(N5CCC(=O)C(F)(F)C5)nc(OC[C@@]56CCCN5C[C@H](F)C6)nc4c3F)c12 [Example 152, 1-(7-(8-Ethyl-7-fluoro-3-hydroxy-naphthalen-1-yl)-8-fluoro-2-(((2R,7aS)-2-fluorotetrahydro-1H-pyrrolizin-7a(5H)-yl)methoxy)pyrido[4,3-d]pyrimidin-4-yl)-3,3-difluoropiperidin-4-one] | 2670 | 4 | –
